Test results from US20040033902A1, “Diphenyl ehter induction systemic resistance in plants” (priority 2002, published 2004).

How the values were obtained:
[1] = system: snapped cotyledons of Williams variety soybean; assay: Snapped cotyledon assay, isoflavone and glyceollin induction, HPLC (Example 4); format: cell-based; conditions: 7 day old Williams soybean, average of two experiments; for Glyceollin Induction: 48 h, tested 10 uM to 1 mM alone and with 30 ug/ml glucan elicitor from Phytophthora sojae, concentration not given; for Total Isoflavone Induction: 48 h constant light, tested 10 uM to 1 mM, concentration of the printed value not stated, standard error less than 15%
Description: The snapped cotyledon assay is a minimal wound assay used to investigate the effects of test compounds in a non-primed background. The assay is performed by snapping cotyledons in two and placing the petiole side down in 0.5% water agar. Ten snapped cotyledons are used per treatment, and the subepidermal cells exposed by snapping are treated with glucan defense elicitor and/or the effector (i.e., diphenyl ether) being examined. The cotyledons are incubated in the light for 48 h as in the cut cotyledon assay. Both proximal (first cell layer) and distal (second and third cell layers) are harvested for analysis by HPLC (see below). Full details of this assay can be found in the publication: Graham, T. L. and Graham, M. Y. 1996. Signaling in soybean phenylpropanoid responses: dissection of primary, secondary and conditioning effects of light, wounding and elicitor treatments. Plant Physiol. 110:1123-1133.
The snapped cotyledon assay is “naive.” That is, it is not pre-disposed or primed for competency for the elicitation of phytoalexin glyceollin in response to the glucan elicitor. Thus, treatment with the glucan elicitor induces the formation of the isoflavones daidzein and genistein, but very little glyceollin. This is an excellent assay to study the effects of a chemical treatment on isoflavone metabolism by itself or in combination with the glucan. In the absence of the glucan, it gives an excellent picture of the effects of the compound alone on isoflavone metabolism. In the presence of the glucan, it tells us if the test compound can induce elicitation competency for the glyceollin response to the glucan.
High performance liquid chromatography (HPLC) is the method of choice for determining the levels of isoflavone defense compounds in soybean. With a single HPLC analysis, one gets a complete and quantitative profile of up to 50 or more aromatic compounds, including all the isoflavones and their conjugates and the phytoalexins, including glyceollin. As little as 20 mg of plant tissue is needed and the method can be readily applied to cotyledon, leaf or any soybean tissue. This analytical method allows us to determine the nmoles/g of each metabolite, which can then readily be processed to compare the percent increase or decrease of a given metabolite in comparison to either water or glucan-treated control tissues. Routinely, tissues are extracted in 80% ethanol and subjected to water/acetonitrile gradient elution from a C18 reverse phase HPLC column. Full details of this procedure can be found in the publication: Graham, T. L. 1991. A Rapid, High Resolution High Performance Liquid Chromatography Profiling Procedure for Plant and Microbial Aromatic Secondary Metabolites. Plant Physiol. 95:584-593. […]

[2] = system: cut cotyledons (Williams cotyledons); assay: Cut cotyledon assay, isoflavones (Williams cotyledons); format: cell-based, soybean; conditions: 50-500 uM
Description: The cut cotyledon assay is used to investigate both the ability of a compound (effector) to activate basal elicitation competency in plants, and to evaluate the ability of a secondary compound (elicitor) to enhance glyceollin elicitation competency in plants in which the isoflavone pools were “loaded” by the action of the effector.
The level of isoflavones in the cotyledon tissues are measured after the addition of different diphenyl ethers to determine the effectiveness of each in inducing the basal production of isoflavones in cotyledon tissues (effector studies). In the elicitor studies, the addition of diphenyl ether first “primes” the cut cotyledon. […] Thus, the ability of a compound to enhance glyceollin elicitation competency by “loading” the isoflavone pools can also be measured.
Cotyledons from 7-8 day old soybean seedlings are removed from the plant and cut on the lower surface to expose subepidermal tissues. […] Tissues are analyzed by HPLC as noted below. […]
High performance liquid chromatography (HPLC) is the method of choice for determining the levels of isoflavone defense compounds in soybean. With a single HPLC analysis, one gets a complete and quantitative profile of up to 50 or more aromatic compounds, including all the isoflavones and their conjugates and the phytoalexins, including glyceollin. […]

Compound	Glyceollin Induction [1]	Total Isoflavone Induction [1]	range of increase of isoflavones over the concentration range [2]
O=C(O)c1cc(Oc2ccc(C(F)(F)F)cc2Cl)ccc1[N+](=O)[O-] [Acifluorfen, acifluorfen]	+122%	+56%	–
N[C@@H](Cc1cc(I)c(Oc2cc(I)c(O)c(I)c2)c(I)c1)C(=O)O [thyroxine]	–	–	20-40%
CS(=O)(=O)NC(=O)c1cc(Oc2ccc(C(F)(F)F)cc2Cl)ccc1[N+](=O)[O-] [Fomesafen, fomesafen]	+233%	+85%	–
